Where no end group is shown, it is not given here.
Columns and labels:
[1] = CD spectra, secondary structure analysis; type: physicochemical; details: 200 μg/ml peptide
Experimental: Circular dichroism (CD) spectra of the six peptides (Hst5, P113, HHP1, di-PH2, di-WP2 and di-18Hc) were measured with a J-715 spectropolarimeter (Jasco, Tokyo, Japan). Two hundred micrograms of each peptide was resuspended in 1 ml of 10 mM NaPB (pH 7.0) (i) without other additives, (ii) with 10% laminarin (LAM) or (iii) with 50% trifluoroethanol (TFE) (a known helix-inducing solvent). The spectra were measured at room temperature in a 1-mm-path-length quartz cell. The scanning speed was 10 nm/min (180 to 260 nm), and each spectrum was the average of five scans.
Fig 3 CD spectra of Hst5, P113, di-18Hc and hybrid peptides. This study was performed with one concentration (200 μg/ml) of each peptide in various buffers: 10 mM sodium phosphate buffer (Red line), 50% TFE in phosphate buffer (green line) and 20 mg of laminarin in phosphate buffer.

[2] = tested on: Candida cells; assay: ROS production (DCFH-DA fluorometric assay); type: cell-based, Candida albicans; details: 32 μg/ml peptide, 120 min, 10 μM DCFH-DA, ex 485 / em 530 nm
Experimental: The amount of ROS produced by Candida cells treated with peptides was measured by a fluorometric assay with DCFHDA as described earlier. Briefly, the cells were adjusted to an OD600 of 1 in 10 ml of NaPB and centrifuged at 5000 ×g for 10 min. The cell pellet was then resuspended in NaPB and treated with peptides alone or with ascorbic acid. After the addition of 10 μM 2`,7`dichlorofluorescein diacetate (DCFH-DA), the fluorescence intensity of the induced ROS production was recorded every 10 min at excitation and emission wavelengths of 485 nm and 530 nm, respectively, in a Perkin Elmer 2030 Reader (Victor X3).  Fig 7 The effect of peptides on ROS generation. Time-dependency of DCF fluorescence as a measure of ROS generation (A) and killing activity (B) were determined in Candida cells treated with peptides (32 μg/ml) or peptides + Ascorbic acid (200 μg/ml) by Perkin Elmer 2030 reader (VictorX 3) and colony count assay, respectively. The fluorescence obtained with the cells treated with 10 mM of H2O2 served as positive control and the cells without peptide served as negative control. The fluorescent intensity of DCF was recorded every 10 min for 120 min at excitation and emission wavelengths of 485 and 530 nm, respectively.

[3] = tested on: C. albicans strains; assay: Broth dilution assay (MIC), C. albicans strains; type: cell-based, Candida albicans; details: 150 mM NaCl
Experimental: To determine the candidacidal activity of the peptides, we used Candida strains obtained from the Culture collection of antimicrobial resistant microbes at Seoul Women’s University in Korea. These included three Candida albicans (CCARM 14020, 14021, 14022), Candida guillermondi and Candida tropicalis. In addition, Candida albicans SC5413 was kindly provided by Dr Jeong-Yoon Kim at the Department of Microbiology & Molecular Biology, Chungnam University, Korea. Yeast were cultured overnight at 30°C in 10 ml of yeast extract-peptone-dextrose (YPD) broth (Qbiogene), then diluted in 10 ml of YPD broth to OD600 = 0.2 and grown for an additional 4 h with shaking at 30°C until OD600 = 0.8 in order to obtain mid-log phase cultures. The peptides (Hst 5, P113, HHP1, HHP2, PH1, PH2, di-PH1, di-PH2, WP1, di-WP2, di-15Hc and di-18Hc) in this study were synthesized by using standard solid-phase synthesis protocols and were purified by reversed-phase high-performance liquid chromatography at Anygen Inc. (Korea). FITC-labeled peptides (F-Hst5, F-P113, F-HHP1, F-di-PH2, F-di-WP2 and F-di-18Hc) were also synthesized by 6-aminohexnoic acid linker at Anygen (Korea) for confocal experiments.
The candidacidal activities of the peptides were tested by using standard microdilution plate assays, radial diffusion assays and broth dilution assay slightly modified from the procedure recommended by the National Committee for Clinical Laboratory Standards. For the candidacidal assays, C. albicans cells were grown in YPD medium and washed twice with 10 mM sodium phosphate buffer (NaPB; Na2HPO4, NaH2PO4, pH 7.4). The cells (1 x 10^6) were then mixed with different concentrations of peptides and incubated at 30°C with constant shaking for 60 min. For energy depletion experiments, cells were pre-incubated with 10 mM NaPB containing 5 mM NaN3 at 30°C for 60 min before the addition of peptides. The cell suspensions were diluted in 10 mM NaPB and aliquots of 500 cells were spread onto YPD agar plates then incubated for 24 h at 30°C to visualize the surviving colonies. Cell survival was expressed as a percentage of that for the control, and the loss of viability was calculated as [1 x (number of colonies from peptide-treated cells/number of colonies from control cells)] x 100. Candidacidal assays were performed in triplicate. For the radial diffusion assay, C. albicans cells were grown in YPD medium overnight and washed twice with 10 mM NaPB. Washed yeast-phase C. albicans cells (1 x 10^6 CFU) were trapped in thin underlay gels containing 9 mM sodium phosphate, 1 mM sodium citrate buffer, 1% (wt/vol) agarose (A6013; Sigma), and 0.3 mg of Sabouraud dextrose broth (Difco)/ml. After incubation at 37°C for 3 h, a 10 ml overlay gel of 1% agarose and 6% Sabouraud dextrose broth was poured on the underlay gel and then the plates were incubated overnight at 37°C. The clear-zone diameters were measured to the nearest 0.1 mm and graphed against the peptide concentration. Zone diameters were expressed in units (0.1 mm = 1 unit). For the broth dilution assay, the Candida strains were cultured in LYM broth for 18 h at 30°C. The numbers of yeasts were counted using a hemocytometer. Stock peptide solutions were prepared to a concentration of 320 μg/ml in distilled water, and were then serially diluted twofold, to 5 μg/ml. […] The antifungal activities were evaluated after 24 h of incubation at 30°C by the observation of visible turbidity the wells. […]

AKRHHGYKRKFH-NH2 [P113]
Secondary structure (%) Beta ([1]; solvent 10mM NaPB (pH 7.0)): 0.0%
Secondary structure (%) Random ([1]; solvent 10mM NaPB (pH 7.0)): 95.3%
Secondary structure (%) Turn ([1]; solvent 10mM NaPB (pH 7.0)): 4.7%
Secondary structure (%) Helix ([1]; solvent 10mM NaPB (pH 7.0), room temperature, average of five scans): 0.0%
Secondary structure (%) Beta ([1]; solvent 50% TFE in 10 mM NaPB): 34.8%
Secondary structure (%) Helix ([1]; solvent 50% TFE in 10 mM NaPB): 4.4%
Secondary structure (%) Random ([1]; solvent 50% TFE in 10 mM NaPB): 60.8%
Secondary structure (%) Turn ([1]; solvent 50% TFE in 10 mM NaPB): 0.0%
DCF fluorescence intensity (ROS generation) [2]: constant increase in fluorescence intensity
killing activities against C. albicans strains in 150 mM salt [3]: abolished

Reference: paper PMC4769088, “Antifungal Activity and Action Mechanism of Histatin 5-Halocidin Hybrid Peptides against Candida ssp” (PLoS ONE, 2016)
